The supplement of paper PMC10307832

Key:
Assay in all cases: relative viability (nuclei count vs DMSO), 5 days (fraction); higher = more cells survive
Venetoclax + Decitabine = compound: CC1(C)CCC(CN2CCN(c3ccc(C(=O)NS(=O)(=O)c4ccc(NCC5CCOCC5)c([N+](=O)[O-])c4)c(Oc4cnc5[nH]ccc5c4)c3)CC2)=C(c2ccc(Cl)cc2)C1 [Venetoclax] + Nc1ncn([C@H]2C[C@H](O)[C@@H](CO)O2)c(=O)n1 [Decitabine] (partner 2 µM)
Summary of the method: (§1)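 Relative viability was taken as the ratio of nuclei in treated wells to nuclei in vehicle wells. Lung cancer cell lines in 1536-well plates received compounds by pin tool one day after seeding, either one drug alone or a fixed anchor-drug dose plus five library-drug doses (not always all listed) in √10 steps. Nuclei were counted on 4× images after 5 days of treatment, and values are medians of duplicate plates.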

Selumetinib + Lapatinib = compound: Cn1cnc2c(F)c(Nc3ccc(Br)cc3Cl)c(C(=O)NOCCO)cc21 [Selumetinib] + CS(=O)(=O)CCNCc1ccc(-c2ccc3ncnc(Nc4ccc(OCc5cccc(F)c5)c(Cl)c4)c3c2)o1 [Lapatinib] (partner 2 µM)
Summary of the method: as §1

Venetoclax + Vorinostat = compound: CC1(C)CCC(CN2CCN(c3ccc(C(=O)NS(=O)(=O)c4ccc(NCC5CCOCC5)c([N+](=O)[O-])c4)c(Oc4cnc5[nH]ccc5c4)c3)CC2)=C(c2ccc(Cl)cc2)C1 [Venetoclax] + O=C(CCCCCCC(=O)Nc1ccccc1)NO [Vorinostat] (partner 1 µM)
Summary of the method: as §1

Selumetinib + Alpelisib = compound: Cn1cnc2c(F)c(Nc3ccc(Br)cc3Cl)c(C(=O)NOCCO)cc21 [Selumetinib] + Cc1nc(NC(=O)N2CCC[C@H]2C(N)=O)sc1-c1ccnc(C(C)(C)C(F)(F)F)c1 [Alpelisib] (partner 2 µM)
Summary of the method: as §1

Cell Line	relative viability (Venetoclax + Decitabine; first compound 0.01 µM)	relative viability (Venetoclax + Decitabine; first compound 0.03162 µM)	relative viability (Venetoclax + Decitabine; first compound 0.1 µM)	relative viability (Venetoclax + Decitabine; first compound 0.3162 µM)	relative viability (Venetoclax + Decitabine; first compound 1 µM)	relative viability (Selumetinib + Lapatinib; first compound 0.02 µM)	relative viability (Selumetinib + Lapatinib; first compound 0.06325 µM)	relative viability (Selumetinib + Lapatinib; first compound 0.2 µM)	relative viability (Selumetinib + Lapatinib; first compound 0.6325 µM)	relative viability (Venetoclax + Vorinostat; first compound 0.01 µM)	relative viability (Venetoclax + Vorinostat; first compound 0.03162 µM)	relative viability (Venetoclax + Vorinostat; first compound 0.1 µM)	relative viability (Venetoclax + Vorinostat; first compound 0.3162 µM)	relative viability (Venetoclax + Vorinostat; first compound 1 µM)	relative viability (Selumetinib + Alpelisib; first compound 0.02 µM)	relative viability (Selumetinib + Alpelisib; first compound 0.06325 µM)	relative viability (Selumetinib + Alpelisib; first compound 0.2 µM)	relative viability (Selumetinib + Alpelisib; first compound 0.6325 µM)
NCI-H322M	0.709	0.695	0.685	0.804	0.747	0.524	0.479	0.439	0.438	0.982	1	0.818	0.996	0.903	0.643	0.549	0.563	0.532
NCI-H358	0.18	0.238	0.226	0.208	0.205	0.38	0.334	0.391	0.314	0.794	0.882	0.67	0.697	0.626	0.645	0.472	0.39	0.305
NCI-H460	0.442	0.525	0.493	0.498	0.447	0.921	0.709	0.555	0.399	0.602	0.684	0.653	0.739	0.6	0.464	0.21	0.172	0.137
NCI-H520	0.526	0.506		0.557	0.458	0.894	0.799	0.86	0.883	0.761	0.75		0.668	0.733	0.992	0.762	0.86	1
NCI-H596	1.16	0.998	0.923	0.914	0.935	0.961	1.03	0.921	0.68	0.649	0.626	0.587	0.568	0.714	0.548	0.43	0.353	0.162
NCI-H647	0.379	0.562	0.461	0.424	0.332	0.964	0.872	0.876	0.957	0.451	0.629	0.529	0.528	0.465	1.14	1.09	0.932	0.809
NCI-H650	0.326	0.311	0.326	0.31	0.372	1.12	1.24	1.34	1.37	0.42	0.413	0.471	0.462	0.391	1.33	1.08	1.19	1.09
NCI-H661	0.561	0.528	0.547	0.532	0.529	0.449	0.466	0.427	0.351	0.741	0.804	0.692	0.893	0.722	0.653	0.598	0.501	0.606
NCI-H727	0.918	1.07	1.04	0.704	0.891	0.562	0.443	0.349	0.325	1.04	1.4	1.08	1.12	1.11	0.309	0.225	0.253	0.202
NCI-H838	0.53	0.485	0.445	0.449	0.477	0.838	0.732	0.861	0.671	0.699	0.72	0.709	0.769	0.719	0.847	0.81	0.807	0.704
NCI-H1355	0.372	0.351	0.402	0.37	0.362	0.959	0.785	0.693	0.558	0.626	0.618	0.625	0.692	0.577	0.77	0.791	0.591	0.444
NCI-H1395	0.71	0.673	0.736	0.692	0.63	0.982	0.997	0.93	1.05	0.7	0.838	0.673	0.907	0.896	0.981	1.05	0.953	1.02
NCI-H1437	0.659	0.52	0.52	0.542	0.556	0.588	0.528	0.351	0.252	0.8	0.888	0.808	0.709	0.788	0.914	0.855	0.292	0.206
NCI-H1651	0.611	0.701	0.548	0.512	0.665	0.691	0.768	0.763	0.752	0.566	0.585	0.577	0.497	0.599	0.779	0.899	0.975	0.828
NCI-H1666	0.719	0.783	0.748	0.676	0.741	0.506	0.286	0.351	0.477	0.997	1.05	1.07	1.02	1.07	0.701	0.721	0.478	0.551
NCI-H1734	0.464	0.515	0.504	0.474	0.493	1.12	1.02	1.09	1.04	0.613	0.876	0.711	0.761	0.76	0.638	0.66	0.587	0.596
